The text below walks through data of paper PMC8306139, “A Novel Dialkylamino-Functionalized Chalcone, DML6, Inhibits Cervical Cancer Cell Proliferation, In Vitro, via Induction of Oxidative Stress, Intrinsic Apoptosis and Mitotic Catastrophe” (Molecules, 2021).

Holding throughout (type): cell-based
Experiment [1] relates to OV2008 cells. Briefly: Nuclear staining with Hoechst dye. How it is done: Nuclear fragmentation and chromatin condensation were detected using the Hoechst 33258 DNA dye as previously described. OV2008 cells were seeded at a density of 250,000 cells/mL in 6-well plates and incubated overnight at 37 °C. The next day, the cells were incubated with the vehicle (DMEM media with 10% FBS and 1% penicillin and streptomycin), 5 or 20 μM of DML6 and further incubated overnight at 37 °C. The cells were fixed and stained with the Hoechst 33258 DNA dye for at least 30 min. The stained nucleus fluorescence was detected using an EVOS digital microscope at wavelengths of 460–490 nm.

In experiment [2] the test system is OV2008 cells. Description: Reactive oxygen species detection (H2DCFDA). Particulars: 5 or 20 μM, 24 h, vs vehicle. The procedure:
The total intracellular level of reactive oxygen species (ROS) was determined by staining the cells with 2,7-dichlorofluorescein diacetate (H2DCFDA). In this assay, cellular esterases cleave the nonfluorescent H2DCFDA molecule to yield H2DCF, by removing the lipophilic moiety (a diacetate group). Subsequently, H2DCF is oxidized by ROS to 2′-7′dichlorofluorescein (DCF), which is a highly fluorescent dye. ROS levels were quantified based on the fluorescence level of DCF detected using EVOS microscope.
The compound, […] (H2DCFDA), was used to detect ROS as previously described. OV2008 cells were seeded at a density of 250,000 cells/ml. After 24 h of incubation with the vehicle, 5 or 20 µM of DML6, the cells were incubated with H2DCFDA for 30 min at 37 °C. The cells were washed 3 times with 1X PBS for 5 min. The levels of reactive oxygen species were then determined based on the fluorescence level of the oxidized DCFDA dye (excitation at 485 nm and emission at 535), using a EVOS digital fluorescent microscope at 20× magnification.

Experiment [3] has as its system OV2008. Description: MTT assay, OV2008. Particulars: 72 h, read-out: IC50 ± SD Cervical OV2008. (Tetrazolium assays rely on reduction of a dye to a coloured formazan, in cell work by metabolically active cells.)
Method: (§1) The concentration of the tested compounds that produced a 50% inhibition of cell growth (IC50) was determined.
(§2) A panel of cancer cell lines, including cervical (OV2008 and HeLa), breast (MDA-MB-231), lung (A549) and colon (LOVO), prostate (DU145), human embryonic kidney cells (HEK293), human colon fibroblast cells (CRL1459), and Chinese hamster ovary cells (CHO), were grown as adherent monolayers in flasks containing Dulbecco’s modified Eagle medium (DMEM), supplemented with 10% fetal bovine serum (FBS) and 1% penicillin and streptomycin, in a humidified incubator with 5% CO2 at 37 °C.
(§3) The cells were seeded evenly (180 μL/well) in 96-well plates, at a density of 3000–5000 cells/well and incubated with serial dilutions of the compounds ranging from 0.1 to 100 μM. The MTT dye (4 mg/ml) was added after 72 h of incubation and incubated with the cells for an additional 4 h at 37 °C, allowing the viable cells to biotransform the yellow-colored MTT into dark-blue formazan crystals. Following incubation, the medium was aspirated, and the formazan crystals were dissolved by adding 100 μL of DMSO to each well. Cytation™ 5 and Cytation™ 7 multi-mode detector (Bio Tek Instruments, Winooski, VT, USA) was used to determine the absorbance readings at a wavelength of 570 nm. The IC50 values were determined based on 3 separate experiments, with each experiment carried out in triplicate. The selectivity of the compounds was determined by comparing their IC50 values in cervical cancer compared to the normal epithelial cell lines, HEK293, CHO, and CRL1459.
The test system of experiment [4] is DU145. Briefly: MTT assay, DU145. The conditions noted are these: Homo sapiens, DU-145, 72 h, read-out: IC50 ± SD Prostate DU145.
Method: as §1, §2
The cells were seeded evenly (180 μL/well) in 96-well plates, at a density of 3000–5000 cells/well and incubated with serial dilutions of the compounds ranging from 0.1 to 100 μM. The MTT dye (4 mg/ml) was added after 72 h of incubation and incubated with the cells for an additional 4 h at 37 °C, allowing the viable cells to biotransform the yellow-colored MTT into dark-blue formazan crystals. Following incubation, the medium was aspirated, and the formazan crystals were dissolved by adding 100 μL of DMSO to each well. Cytation™ 5 and Cytation™ 7 multi-mode detector (Bio Tek Instruments, Winooski, VT, USA) was used to determine the absorbance readings at a wavelength of 570 nm. The IC50 values were determined based on 3 separate experiments, with each experiment carried out in triplicate.
Experiment [5] concerns caspase-9. Briefly: Western blot, cleaved caspase-9. The conditions noted are these: OV2008, 20 μM, 24 hours, vs vehicle. How it is done: The OV2008 cells were lysed to obtain total cellular protein fractions using Mammalian Protein Extraction Reagent (Catalog # 78501, M-PER™, Thermo Fisher Scientific, Waltham, MA, USA). The cells were seeded in […] at a density of 1 × 10^6 and incubated with 5 or 20 µM of DML6 or 1 µM of doxorubicin (Catalog # T1-2-, TargetMol, Boston, MA, USA) (a positive control) for 24 h. The following day, the cells were washed with ice-cold PBS, scraped using a cell scrapper and collected in Eppendorf tubes. The tubes were centrifuged at 1500 RPM at 4 °C for 5 min. The solution was discarded and replaced with 70 µL of the cell lysis buffer (M-PER reagent, 100 mM Sodium Orthovanadate (NaOV) at a final concentration of 2.5 mM) and a 100X protease inhibitor cocktail (Catalog # P8340, Sigma-Aldrich, St. Louis, MO, USA, final concentration of 1X, containing of aprotinin, bestatin, E-64, leupeptin and pepstatin). Thirty minutes later, the resulting solution was centrifuged at 10,000 RPM at 4 °C for 5 min and the supernatant was collected. The protein concentration of the cell extracts was determined using the bicinchoninic acid (BCA) (Catalog # 786-570, G-Biosciences, Saint Louis, MO, USA) quantification assay. […] Finally, the amount of protein in each blot was quantified using the Image J software (NIH, Bethesda, MD, USA). All data were calculated as a ratio to β-actin.
A general note: In western blotting, separated proteins are transferred to a membrane and probed.

Experiment [6] deals with OV2008 cells. Description: Cell cycle analysis, flow cytometry with propidium iodide. Particulars: for percentage of cells in the G2 phase / percentage of cells in the G1 phase: 24 h; for percentage of cells in the G2 phase: vehicle 4.18%; for percentage of cells in the G1 phase: vehicle 85.99%. How it is done:
Cell cycle analysis was conducted using flow cytometry cell cycle analysis with propidium iodide (PI) as previously described. OV2008 cells were plated into 6-well plates at 2.5 × 10^5 cells/well. The cells were incubated with the vehicle, 5 or 20 μM of DML6 for 24 h. The next day, the cells were trypsinized with 0.25% trypsin, 2.21 mM EDTA, 1X, washed, counted, and resuspended in 1ml of ice-cold PBS. The cells were then stained with 200 µL (50 µg/ml stock solution propidium iodide (PI) dye and incubated for at least 15 min. The distribution of the cells in each phase of the cell cycle after incubation with the vehicle or DML6 was determined using A BD FACSCanto™ flow cytometer (BD Biosciences, Becton-Dickinson, San Jose, CA, USA) and analyzed using FCS Express 7 plus De Novo software (Glendale, CA, USA).
On the technique in general: In flow cytometry, cells or beads pass a laser one at a time.

Experiment [7] deals with cancer cell lines. Description: MTT assay, panel of cancer cell lines.
Method: as §1, §2, §3

As to `CN(C)c1ccc(/C=C/C(=O)c2ccc(Cl)cc2Cl)cc1` [DML6, (E)-1-[2,4-dichlorophenyl]-3-(4-(dimethylamino)phenyl)prop-2-en-1-one], the nuclear morphology result in experiment [1] (5 μM, 24 h) is “increased the number of cells with condensed, fragmented nuclei”; in experiment [1] (20 µM) it was “decondensed, multiple micronuclei and some single, highly condensed nuclei”. In experiment [1] (5 and 20 μM, vs vehicle), the “percentage of apoptotic nuclei” value was “significantly higher”. Also, in experiment [2], the “levels of DCF fluorescence (ROS)” value is recorded as “significantly higher”. The IC50 (usually the concentration needed to halve the response being measured) in experiment [3] was 7.8 µM; in experiment [4] it was 96.9 ± 4.4 µM; in experiment [7] (range over the cell lines, read-out: IC50 values in all of the cancer cell lines), 7.8 to 91.9 µM. In addition, the “cleavage of initiator caspase-9” value in experiment [5] is given as “induced the cleavage”. For the same molecule, the “percentage of cells in the G2 phase” value in experiment [6] (5 μM) is 42.56%; in experiment [6] (20 μM) it was 59.96%. Also, the figures for the “percentage of cells in the G1 phase” value in experiment [6] (5 μM) and in experiment [6] (20 μM) were 16.01% and 27.84%, respectively. In addition, in experiment [6] (5 or 10 µM, vs vehicle), the “change of percentage of cells in the sub G1 phase” value is reported as “neither 5 or 10 µM of DML6 significantly altered”. The “anti-proliferative efficacy in a wide range of cancer cell lines, compared to normal cells” value in experiment [7] is “moderate to good anti-proliferative efficacy”.
